Results published in BindingDB's records for doi:10.1016/j.bmcl.2008.04.069 (Bristol-Myers Squibb, 2008).

Molecular target: T1, 11-beta-hydroxysteroid dehydrogenase 1 [23-292,A23S,F278E] (Homo sapiens, UniProt P28845, A23S/F278E)
T1 construct: 23-292
Test: Scintillation Proximity Assay (SPA)
Settings: pH 6.5; 23 °C
Method: 11beta-HSD1 microsomes isolated from HEK 293 cells over-expressing human 11beta-HSD1 were incubated with the substrate cortisone and cofactor NADPH at room temperature. The reactions were terminated with the addition of a nonspecific 11beta-HSD1 inhibitor (18beta-glycyrrhetinic acid). The product cortisol was quantified in an immuno-competition SPA wherein the [3H]-cortisol bound to anti-rabbit antibody Yitrium silicate SPA beads coated with polyclonal anti-cortisol antibody was competed by cortisol produced in the reaction, and the reaction mixture was read in a scintillation plate reader (TopCount). The amount of cortisol was determined from a cortisol standard curve.

T1 sequence (P28845 as listed by the source A23S/F278E): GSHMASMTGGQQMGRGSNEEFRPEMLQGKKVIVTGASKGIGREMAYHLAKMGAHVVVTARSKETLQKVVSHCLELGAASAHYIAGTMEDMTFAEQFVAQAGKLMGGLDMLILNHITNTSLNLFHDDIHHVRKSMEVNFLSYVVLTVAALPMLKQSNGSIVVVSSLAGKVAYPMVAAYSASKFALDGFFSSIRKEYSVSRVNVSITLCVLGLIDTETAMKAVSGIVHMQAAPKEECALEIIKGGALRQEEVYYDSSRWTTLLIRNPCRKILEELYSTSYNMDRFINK

IC50: > 10 µM
Compound: O=C(c1cncc(CS(=O)(=O)c2c(Cl)cccc2Cl)c1)N1CCOCC1 [pyridine amide, 26]
